In article PMC13476069, “Cryo-EM structure of the bicarbonate receptor GPR30” (eLife, 2026):

Tests used:
GPR30 H307^7.36 mutant = settings: effect of H307^7.36 mutation; ref Jo-Watanabe et al., 2024; cited from earlier work
mock HEK293 cells = settings: mock stable HEK293 cells; NaHCO3; normalized to 50 µM ATP; four-parameter fit
Experimental: (§1) HEK293A cells (Thermo Fisher Scientific, Cell lines are authenticated by the supplier. No additional authentication was performed by the authors in this study. Mycoplasma contamination is not tested.) were maintained at 37°C and 5% CO2. […] Stable cell lines were established through antibiotic drug selection. The HEK293A cells were transfected with the N-terminal HA-tagged wild-type and mutant Gpr30 and maintained in the culture medium containing 1 mg/ml of G418.
(§2) Stable HEK293 cells (2×10^4 cells/well) were seeded into a black wall and clear bottom 96-well plate 24 hr before the assay. […] The cells were washed twice with HEPES buffer. The cells were stimulated with indicated concentrations of NaHCO3 and 50 µM ATP at 37°C and 0.03% CO2. The fluorescence intensity was analyzed using FlexStation 3 (Molecular Devices, Ex/Em = 490/525 nm). The difference between the maximum and minimum fluorescent values during 15–60 s was normalized by those with ATP stimulation. Nonlinear regression (four-parameter) was used for curve fitting, and EC50 and Top (maximum response) were calculated.
(§3) Nonlinear regression (four-parameter) was used for curve-fitting over the data shown in Figure 3F, and EC50 and Top (maximum response) were calculated. The values of cell surface and total expression are derived from Figure 3.—figure supplement 1 and 3, respectively.

GPR30 E115^2.61 mutant = settings: effect of E115^2.61 mutation; ref Jo-Watanabe et al., 2024; cited from earlier work
[1] = target: T1, human GPR30 Q138^3.33A mutant (Homo sapiens, UniProt Q99527, Q138A); settings: effect of Q138^3.33 mutation; ref Jo-Watanabe et al., 2024; cited from earlier work
T1 sequence (Q99527 whole entry Q138A): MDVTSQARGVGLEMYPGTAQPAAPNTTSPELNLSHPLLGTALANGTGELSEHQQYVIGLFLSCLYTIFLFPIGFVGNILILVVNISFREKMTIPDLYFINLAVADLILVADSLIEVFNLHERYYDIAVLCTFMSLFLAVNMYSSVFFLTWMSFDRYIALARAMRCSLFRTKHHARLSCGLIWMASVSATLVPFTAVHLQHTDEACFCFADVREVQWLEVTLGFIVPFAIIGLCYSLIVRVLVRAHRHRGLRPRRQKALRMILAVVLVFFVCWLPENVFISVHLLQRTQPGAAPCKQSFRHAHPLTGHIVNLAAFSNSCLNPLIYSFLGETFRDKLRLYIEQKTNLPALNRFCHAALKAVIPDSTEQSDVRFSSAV

[2] = target: human GPR30 D210^ECL2A mutant (Homo sapiens, UniProt Q99527, D210A)
Chain of human GPR30 D210^ECL2A mutant (Q99527 whole entry D210A): as the sequence (Q99527 whole entry Q138A) above, with A138Q, D210A counted along it
Excerpt: (§4) Human Gpr30 cDNA was obtained from human hepatoblastoma-derived HepG2 cells. The coding sequences of human Gpr30 were inserted into the multi-cloning site of the plasmid vector pCXN2, which was generated in our laboratory via modification of pCAGGS, between the KpnI and EcoRI sites. The […] HA-tagged Gpr30 was amplified using a reverse primer containing the HA sequence. One amino acid mutation of human GPR30 was generated as follows: the targeted amino acid was changed to alanine (GCC) using a two-step PCR method with the QuikChange Primer Design Program by Agilent (https://www.agilent.com/store/primerDesignProgram.jsp), and the coding sequence with each mutation was inserted into the multi-cloning site of pCXN2 between the KpnI and EcoRI sites. The mutations generated were D111A, E121A, R122A, D125A, S134A, Q138A, D210A, Q215A, E218A, N276A, Q296A, C207A, P71A, and H307A.
as §1, §2, §3

[3] = target: T1, human GPR30 Q138^3.33A mutant
Excerpt: as §4, §1, §2, §3

[4] = target: human GPR30 D111^2.56A mutant (Homo sapiens, UniProt Q99527, D111A); settings: stable HEK293, HA-tagged D111^2.56A, NaHCO3, four-parameter fit
Chain of human GPR30 D111^2.56A mutant (Q99527 whole entry D111A): as the sequence (Q99527 whole entry Q138A) above, with D111A, A138Q counted along it
Excerpt: as §4, §1, §2, §3

[5] = target: human GPR30 E121^ECL1A mutant (Homo sapiens, UniProt Q99527, E121A); settings: stable HEK293, HA-tagged E121^ECL1A, NaHCO3, four-parameter fit
Chain of human GPR30 E121^ECL1A mutant (Q99527 whole entry E121A): as the sequence (Q99527 whole entry Q138A) above, with E121A, A138Q counted along it
Excerpt: as §4, §1, §2, §3

[6] = target: human GPR30 R122^ECL1A mutant (Homo sapiens, UniProt Q99527, R122A); settings: stable HEK293, HA-tagged R122^ECL1A, NaHCO3, four-parameter fit
Chain of human GPR30 R122^ECL1A mutant (Q99527 whole entry R122A): as the sequence (Q99527 whole entry Q138A) above, with R122A, A138Q counted along it
Excerpt: as §4, §1, §2, §3

[7] = target: human GPR30 Q215^5.39A mutant (Homo sapiens, UniProt Q99527, Q215A); settings: stable HEK293, HA-tagged Q215^5.39A, NaHCO3, four-parameter fit
Chain of human GPR30 Q215^5.39A mutant (Q99527 whole entry Q215A): as the sequence (Q99527 whole entry Q138A) above, with A138Q, Q215A counted along it
Excerpt: as §4, §1, §2, §3

[8] = target: human GPR30 D125^ECL1A mutant (Homo sapiens, UniProt Q99527, D125A)
Chain of human GPR30 D125^ECL1A mutant (Q99527 whole entry D125A): as the sequence (Q99527 whole entry Q138A) above, with D125A, A138Q counted along it
Excerpt: as §4, §1, §2, §3

[9] = target: human GPR30 N276^6.52A mutant (Homo sapiens, UniProt Q99527, N276A); settings: stable HEK293, HA-tagged N276^6.52A, NaHCO3, four-parameter fit
Chain of human GPR30 N276^6.52A mutant (Q99527 whole entry N276A): as the sequence (Q99527 whole entry Q138A) above, with A138Q, N276A counted along it
Excerpt: as §4, §1, §2, §3

[10] = target: human GPR30 E218^5.42A mutant (Homo sapiens, UniProt Q99527, E218A); settings: stable HEK293, HA-tagged E218^5.42A, NaHCO3, four-parameter fit
Chain of human GPR30 E218^5.42A mutant (Q99527 whole entry E218A): as the sequence (Q99527 whole entry Q138A) above, with A138Q, E218A counted along it
Excerpt: as §4, §1, §2, §3

[11] = target: human GPR30 Q296^ECL3A mutant (Homo sapiens, UniProt Q99527, Q296A); settings: stable HEK293, HA-tagged Q296^ECL3A, NaHCO3, four-parameter fit
Chain of human GPR30 Q296^ECL3A mutant (Q99527 whole entry Q296A): as the sequence (Q99527 whole entry Q138A) above, with A138Q, Q296A counted along it
Excerpt: as §4, §1, §2, §3

[12] = target: human GPR30 S134^3.29A mutant (Homo sapiens, UniProt Q99527, S134A); settings: stable HEK293, HA-tagged S134^3.29A, NaHCO3, four-parameter fit
Chain of human GPR30 S134^3.29A mutant (Q99527 whole entry S134A): as the sequence (Q99527 whole entry Q138A) above, with S134A, A138Q counted along it
Excerpt: as §4, §1, §2, §3

[13] = target: human GPR30 P71^1.44A mutant (Homo sapiens, UniProt Q99527, P71A)
Chain of human GPR30 P71^1.44A mutant (Q99527 whole entry P71A): as the sequence (Q99527 whole entry Q138A) above, with P71A, A138Q counted along it
Excerpt: as §4, §1, §2, §3

[14] = target: T2, human GPR30 wild-type (WT) (Homo sapiens, UniProt Q99527); settings: stable HEK293, HA-tagged WT GPR30, NaHCO3, four-parameter fit
T2 sequence (Q99527 whole entry): as the sequence (Q99527 whole entry Q138A) above, with A138Q counted along it
Excerpt: as §4, §1, §2, §3

[15] = target: human GPR30 C207^ECL2A mutant (Homo sapiens, UniProt Q99527, C207A)
Chain of human GPR30 C207^ECL2A mutant (Q99527 whole entry C207A): as the sequence (Q99527 whole entry Q138A) above, with A138Q, C207A counted along it
Excerpt: as §4, §1, §2, §3

[16] = target: T2, human GPR30 wild-type (WT); settings: physiological concentration of bicarbonate ions; ref Jo-Watanabe et al., 2024; cited from earlier work
[17] = stable HEK293, HA-tagged D210^ECL2A, NaHCO3, four-parameter fit
[18] = Q138^3.33A vs wild-type, calcium assay
[19] = stable HEK293, HA-tagged Q138^3.33A, NaHCO3, four-parameter fit
[20] = stable HEK293, HA-tagged D125^ECL1A, NaHCO3, four-parameter fit

SMILES: O=C(O)O [bicarbonate]
- bicarbonate-dependent calcium response (GPR30 H307^7.36 mutant): abolish
- Top (maximum response) (mock HEK293 cells): 0.08132
- bicarbonate-dependent calcium response (GPR30 E115^2.61 mutant): abolish
- bicarbonate-dependent calcium response [1]: abolish
- maximum response relative to GPR30 wild-type ([2]; D210^ECL2A vs wild-type, calcium assay): half
- reactivity to bicarbonate (calcium response) ([2]; effect of D210^ECL2A mutation, stable HEK293): reduced reactivity
- EC50 [2, 17]: 5.41 mM
- LogEC50 [2, 17]: 0.7335
- Top (maximum response) ([2]; stable HEK293, HA-tagged D210^ECL2A, NaHCO3, normalized to 50 µM ATP, four-parameter fit): 0.6256
- EC50 compared with wild-type GPR30 [3, 18]: higher
- maximum response relative to GPR30 wild-type [3, 18]: one-third
- reactivity to bicarbonate (calcium response) ([3]; effect of Q138^3.33A mutation, stable HEK293): reduced reactivity
- EC50 [3, 19]: 10.8 mM
- LogEC50 [3, 19]: 1.033
- Top (maximum response) ([3]; stable HEK293, HA-tagged Q138^3.33A, NaHCO3, normalized to 50 µM ATP, four-parameter fit): 0.4166
- EC50 [4]: 2.35 mM
- LogEC50 [4]: 0.3703
- Top (maximum response) ([4]; normalized to 50 µM ATP): 1.244
- EC50 [5]: 4.71 mM
- LogEC50 [5]: 0.6733
- Top (maximum response) ([5]; normalized to 50 µM ATP): 0.9457
- EC50 [6]: 3.46 mM
- LogEC50 [6]: 0.5393
- Top (maximum response) ([6]; normalized to 50 µM ATP): 0.877
- EC50 [7]: 4.51 mM
- LogEC50 [7]: 0.6544
- Top (maximum response) ([7]; normalized to 50 µM ATP): 0.8471
- bicarbonate-dependent calcium responses ([8]; effect of D125^ECL1A mutation, stable HEK293): abolished
- EC50 [8, 20]: Unstable
- LogEC50 [8, 20]: Unstable
- Top (maximum response) ([8]; stable HEK293, HA-tagged D125^ECL1A, NaHCO3, normalized to 50 µM ATP, four-parameter fit): 0.0868
- EC50 [9]: 2.89 mM
- LogEC50 [9]: 0.4605
- Top (maximum response) ([9]; normalized to 50 µM ATP): 0.948
- EC50 [10]: 3.72 mM
- LogEC50 [10]: 0.5701
- Top (maximum response) ([10]; normalized to 50 µM ATP): 0.9426
- EC50 [11]: 3.09 mM
- LogEC50 [11]: 0.4903
- Top (maximum response) ([11]; normalized to 50 µM ATP): 0.9637
- EC50 [12]: 4.97 mM
- LogEC50 [12]: 0.6966
- Top (maximum response) ([12]; normalized to 50 µM ATP): 0.8079
- bicarbonate-dependent calcium responses ([13]; effect of P71^1.44A mutation, stable HEK293): abolished
- Top (maximum response) ([13]; stable HEK293, HA-tagged P71^1.44A, NaHCO3, normalized to 50 µM ATP, four-parameter fit): 0.1079
- EC50 [14]: 3.83 mM
- LogEC50 [14]: 0.5838
- Top (maximum response) ([14]; normalized to 50 µM ATP): 1.155
- bicarbonate-dependent calcium responses ([15]; effect of C207^ECL2A mutation, stable HEK293): abolished
- Top (maximum response) ([15]; stable HEK293, HA-tagged C207^ECL2A, NaHCO3, normalized to 50 µM ATP, four-parameter fit): 0.06277
- activation of GPR30, Gq-coupled calcium responses [16]: activates
